{"source": "patent US20160089391A1", "about": "“Molecular Targets for Cardiovascular Disease” (Temple University-of the Commonwealth System of Higher …, priority 2014, published 2016)", "key": {"[1]": {"system": "mouse thoracic aorta", "assay": "Endothelium-dependent vascular relaxation to ACh in aortic rings treated ex vivo (multiple-wire myograph)", "details": "for aortic endothelium-dependent vascular relaxation to ACh: aortic rings of HHcy/HG-Cbs−/+ mice preincubated with calpain inhibitor 20 μmol/L for 1 hour; for aortic endothelium-dependent vascular relaxation to ACh / endothelium-dependent vascular relaxation to ACh: p<0.05; for endothelium-dependent vascular relaxation to ACh: aortic rings of HHcy/HG-Cbs−/+ mice preincubated 1 hr with antioxidant (PEG-SOD 150 U/mL, Tempol 1 mmol/L, apocynin 10 μmol/L)"}, "[2]": {"system": "calpain", "assay": "t-BOC calpain activity assay in intact HAECs", "assay_type": "cell-based, human", "details": "HAECs treated with DL-Hcy 500 μmol/L and D-Glu 25 mmol/L; PEG-SOD 150 U/mL, 48 hrs", "description": "(FIG. 5A). In situ .O2^− production in aorta. (FIG. 5B). Nitrotyrosine (3-NT) levels. Aortic paraffin-cross sections (7 μm) from Cbs^−/+ mice were stained with 3-NT antibody and 3,3′-diaminobenzidine (DAB, brown). (FIG. 5C). Urinary 8-isoprostane levels. At the age of 8-week, Cbs^+/+ and Cbs^−/+ mice were fed with a high methionine diet (HM, methionine: 2% w/w) for 8 weeks, and/or injected with streptozotocin (STZ, i.p., 40 mg/kg) for 5 consecutive days starting from the first day of experiment. Mice fed with a control diet (CT, methionine: 0.37% w/w) and injected with vehicle (50 mM citrate buffer) served as controls. Aortic cryo-cross sections (30 μm) from Cbs^−/+ mice were stained with the superoxide marker dihydroethidium (DHE, 3 μmol/L, 30 mins.). Urine was collected from 24 hrs metabolic cage. (FIG. 5D). Endothelium-dependent vascular relaxation in HHcy/HG CBS^−/+ mouse aorta in the presence of antioxidants. Arterial rings were pre-contracted with phenylephrine (1 μmol/L) and examined for relaxation to cumulative additions of ACh in the aorta of STZ-treated Cbs^−/+ mice on HM diet. The arterial rings were preincubated with antioxidants polyethylene glycol superoxide dismutase (PEG-SOD, 150 U/mL, Sigma #S9549), Tempol (1 mmol/L, Sigma #176141), or apocynin (10 μmol/L, Sigma #W508454) for 1 hr. n=3-5. *p<0.05 vs vehicle-treated Cbs^−/+ mice on CT diet; †p<0.05 vs vehicle-treated Cbs^−/+ mice on HM diet; ‡p<0.05 vs STZ-treated Cbs^−/+ mice on CT diet; #p<0.05 vs STZ-treated Cbs^−/+ mice on HM diet. (FIG. 5E). […] Calpain activity was measured by the fluorescent substrate t-BOC-Leu-Met-CMAC (T-BOC, 10 μmol/L, 30 min) Human aortic endothelial cells (HAECs, passage 8-9) were cultured in EC medium which contains 5 mmol/L D-glucose (D-Glu), treated with DL-homocysteine (DL-Hcy, 500 μmol/L) and/or D-Glu (25 mmol/L) with or without […] (150 U/mL) or MDL28170 (MDL, 20 μmol/L) for 48 hrs, or CTsiRNA and μ-calpsiRNA for 72 hrs. […] Transfection effect of μ-calpsiRNA in HAECs was detected by Western blot after transfected with the siRNA for indicated time. […]"}, "[3]": {"molecular_target": "T1, eNOS (Homo sapiens, UniProt P29474)", "T1 construct": "endogenous in cells; host or cells: HAECs (human aortic endothelial cells)", "T1 sequence (P29474 2-1203 limits assumed)": "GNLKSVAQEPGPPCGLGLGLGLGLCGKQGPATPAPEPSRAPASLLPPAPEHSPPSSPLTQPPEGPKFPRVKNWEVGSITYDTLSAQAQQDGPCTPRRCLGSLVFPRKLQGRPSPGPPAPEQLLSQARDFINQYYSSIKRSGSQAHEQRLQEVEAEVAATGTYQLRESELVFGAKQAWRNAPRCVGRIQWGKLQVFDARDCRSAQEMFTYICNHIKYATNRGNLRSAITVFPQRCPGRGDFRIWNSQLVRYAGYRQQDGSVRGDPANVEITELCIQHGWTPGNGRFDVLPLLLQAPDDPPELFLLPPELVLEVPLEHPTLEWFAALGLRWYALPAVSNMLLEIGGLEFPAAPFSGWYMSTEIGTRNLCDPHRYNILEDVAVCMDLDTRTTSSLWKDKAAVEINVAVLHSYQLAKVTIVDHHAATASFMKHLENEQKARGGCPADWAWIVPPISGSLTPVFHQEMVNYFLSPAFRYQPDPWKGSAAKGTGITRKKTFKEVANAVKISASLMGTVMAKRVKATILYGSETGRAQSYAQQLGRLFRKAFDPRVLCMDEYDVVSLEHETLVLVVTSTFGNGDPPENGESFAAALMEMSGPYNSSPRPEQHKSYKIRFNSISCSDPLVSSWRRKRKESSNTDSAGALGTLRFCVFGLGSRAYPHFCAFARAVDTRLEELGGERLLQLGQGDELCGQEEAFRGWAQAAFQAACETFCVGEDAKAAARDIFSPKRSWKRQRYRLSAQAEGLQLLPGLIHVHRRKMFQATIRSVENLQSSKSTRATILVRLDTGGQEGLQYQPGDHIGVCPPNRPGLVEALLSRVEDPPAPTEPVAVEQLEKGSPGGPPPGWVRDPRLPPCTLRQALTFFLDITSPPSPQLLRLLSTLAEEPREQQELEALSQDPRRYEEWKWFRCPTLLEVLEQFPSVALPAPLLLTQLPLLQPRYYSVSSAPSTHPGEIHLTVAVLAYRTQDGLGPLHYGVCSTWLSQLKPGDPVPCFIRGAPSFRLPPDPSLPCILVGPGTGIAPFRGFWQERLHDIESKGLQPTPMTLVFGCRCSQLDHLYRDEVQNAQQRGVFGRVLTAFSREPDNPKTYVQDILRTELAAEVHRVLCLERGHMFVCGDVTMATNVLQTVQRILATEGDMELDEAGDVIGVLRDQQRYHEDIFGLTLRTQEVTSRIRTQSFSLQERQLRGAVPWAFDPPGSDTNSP", "assay": "eNOS activity in intact HAECs (3H-Arg to 3H-citrulline conversion)", "assay_type": "cell-based", "details": "HAECs; L-NAME 100 μmol/L added in the last hour", "description": "(§1) (FIG. 6A). Images of NO. Nitric oxide (NO) production in HAECs was measured by staining intact HAECs with NO marker DAF-FM. N^G-nitro-L-arginine methyl ester (L-NAME, 100 μmol/L, Sigma #N5751) was added in the last hour as a negative control. (FIG. 6B). Quantification of NO. (FIG. 6C). eNOS activity. Human aortic endothelial cells (HAECs) were cultured in EC medium which contains 5 mmol/L D-Glucose (D-Glu), and treated with DL-homocysteine (DL-Hcy, 500 μmol/L) and/or (D-Glu, 25 mmol) without or with MDL28170 (MDL) for 48 hrs, CTsiRNA or μ-calpsiRNA for 72 hrs. L-NAME (100 μmol/L) was added in the last hour. NO was measured by staining intact HAECs with NO marker (DAF-FM, 10 μmol/L, Sigma #D2321, 30 mins.). Endothelial nitric oxide synthase (eNOS) activity was assessed by measuring of ^3H-L-arginine conversion to ^3H-citrulline in intact HAECs. n=3, *p<0.05 vs control; †p<0.05 vs DL-Hcy-treated HAECs; ‡p<0.05 vs D-Glu-treated HAECs; #p<0.05 vs DL-Hcy/D-Glu-treated HAECs. DAF-FM, 4-Amino-5-methylamino-2′,7′-difluorescein; CTsiRNA, control siRNA; HG, hyperglycemia; HHcy, hyperhomocysteinemia; μ-calpsiRNA, μ-calpain siRNA.\n(§2) HAECs treated with or without DL-Hcy and/or D-Glu for 48 hrs were stained with 4-Amino-5-Methylamino-2′,7′-Difluorofluorescein (DAF-FM). To explore the role of calpain, especially μ-calpain, the DL-Hcy/D-Glu-treated HAECs were also treated with MDL28170 (MDL, 20 μmol/L) and μ-calpain siRNA, respectively. HAECs treated with L-NAME (100 μmol/L) for 1 hr before DAF-FM staining were used as negative controls. eNOS activity in HAECs was determined by measuring the conversion of ^3H-Arg to ^3H-citrulline in intact cells as previous described (Jiang et al., 2005, Arterioscl Throm Vas 25:2515-2521)."}, "[4]": {"system": "NO production in HAECs", "assay": "NO production in HAECs by DAF-FM staining", "assay_type": "cell-based, human", "details": "HAECs; L-NAME 100 μmol/L added in the last hour (negative control)", "description": "as §1, §2"}, "[5]": {"system": "aorta of db/db mice", "details": "supplementation, via the NO pathway (Seto et al., 2010); cited from earlier work"}, "[6]": {"system": "eNOS-pThr495", "assay": "eNOS-pThr495 protein levels in HAECs", "assay_type": "cell-based, human", "details": "HAECs with DL-Hcy 500 μmol/L and D-Glu 25 mmol/L 48 hrs; GFX 2 μmol/L 30 min; MDL 20 mmol/L 48 hrs; Adv-dnPKCβ2 200 MOI 72 hrs; siRNA 72 hrs", "description": "(FIG. 7A). eNOS protein levels in mouse aorta of Cbs^−/+ mice (Left Panel) and HAECs (Right Panel). (FIG. 7B). eNOS-pThr497/495 protein levels in mouse aorta of Cbs^−/+ mice (Left Panel) and in HAECs (Right Panel). At the age of 8-week, Cbs^−/+ mice were fed with a high methionine diet (HM, methionine: 2% w/w) for 8 weeks, and/or injected with streptozotocin (STZ, i.p., 40 mg/kg) for 5 consecutive days starting from the first day of experiment. Mice fed with a control diet (CT, methionine: 0.37% w/w) and injected with vehicle (50 mmol/L citrate buffer) served as controls. Human aortic endothelial cells (HAECs, passage 8-9) were cultured in EC medium which contains 5 mmol/L D-glucose (D-Glu), treated with DL-homocysteine (DL-Hcy, 500 μmol/L) and/or D-Glu (25 mmol/L). (FIG. 7C). eNOS-pThr495 protein levels in HAECs. HAECs (passage 8-9) were cultured in EC medium which contains 5 mmol/L D-glucose (D-Glu), treated with DL-homocysteine (DL-Hcy, 500 μmol/L) and D-Glu (25 mmol/L for 48 hrs with or without non-specific PKC inhibitor GF109203X (GFX) (2 μmol/L, 30 min.); control adenoviruse (Ad-CT, 200 MOI, 72 hrs), dominant negative PKCβ2 adenovirus (Adv-dnPKCβ2, 200 MOI, 72 hrs); μ-calpain siRNA (μ-calpsiRNA, Santa Cruz #sc-29885, 72 hrs), or MDL ([…], 48 hrs, Sigma #M6690). (FIG. 7D). Transfection effect of Adv-dnPKCβ2in HAECs. Cultured HAECs (passage 8, 80% confluence) were treated with 12.5, 25, 50, 100 and 200 MOI Adv-dnPKCβ2 for 48 hrs. n=3, *p<0.05 vs control; †p<0.05 vs DL-Hcy-treated HAECs; ‡p<0.05 vs D-Glu-treated HAECs; #p<0.05 vs DL-Hcy/D-Glu-treated HAECs. Cbs, cystathionine β-synthase; eNOS, endothelial nitric oxide synthase; eNOS-pThr495/497, phosphorylation of eNOS at threonine 497 (mouse)/495 (human).\nHuman aortic endothelial cells (HAECs) were cultured in cell culture medium (M199, HyClone) as previously described (Wang et al., 1997, J Biol Chem 272:25380-25385). The HAECs were treated with DL-Hcy (200 or 500 μmol/L) and/or D-glucose (D-Glu, 25 mmol/L) for 24 or 48 hrs in the presence or absence of selected pharmacological inhibitors or siRNA or adenovirus."}}, "note": "Residues, ends and D or L forms follow the SMILES beside them."}
{"compound": "CCCC[C@@H](C=O)NC(=O)[C@H](CC(C)C)NC(=O)OCc1ccccc1", "note": "[calpeptin]", "values": [{"measurement": "aortic endothelium-dependent vascular relaxation to ACh", "setting": "[1]", "result": "markedly improved"}]}
{"compound": "CC1(C)CC(O)CC(C)(C)N1[O]", "note": "[Tempol]", "values": [{"measurement": "endothelium-dependent vascular relaxation to ACh", "setting": "[1]", "result": "significantly improved"}]}
{"compound": "CSCC[C@@H](C=O)NC(=O)[C@H](CC(C)C)NC(=O)[C@H](CC(C)C)NC(C)=O", "note": "[ALLM, N-Acetyl-Leu-Leu-Met-CHO] (Ac-Leu-Leu-Met-aldehyde)", "values": [{"measurement": "aortic endothelium-dependent vascular relaxation to ACh", "setting": "[1]", "result": "markedly improved"}]}
{"compound": "polyethylene glycol superoxide dismutase [PEG-SOD]", "values": [{"measurement": "decrease of HHcy/HG-induced calpain activation", "setting": "[2]", "result": 49, "unit": "%"}, {"measurement": "endothelium-dependent vascular relaxation to ACh", "setting": "[1]", "result": "significantly improved"}]}
{"compound": "COc1cc(C(C)=O)ccc1O", "note": "[apocynin]", "values": [{"measurement": "endothelium-dependent vascular relaxation to ACh", "setting": "[1]", "result": "significantly improved"}]}
{"compound": "COC(=O)[C@@H](N)CCCNC(=N)N[N+](=O)[O-]", "note": "[L-NAME, N^G-nitro-L-arginine methyl ester]", "values": [{"measurement": "eNOS activity", "setting": "[3]", "result": 10, "unit": "%"}, {"measurement": "NO generation", "setting": "[4]", "result": 5.7, "unit": "%"}, {"measurement": "vascular relaxation response to ACh", "setting": "[1]; aorta of all groups (Cbs+/+ and Cbs−/+, HHcy and/or HG), L-NAME 100 μmol/L, 30 min", "result": "completely abolished"}]}
{"compound": "Nc1nc2ncc(CNc3ccc(C(=O)N[C@@H](CCC(=O)O)C(=O)O)cc3)nc2c(=O)[nH]1", "note": "[Folic acid]", "values": [{"measurement": "endothelium-dependent vascular relaxation responses to ACh", "setting": "[5]", "result": "improved"}]}
{"compound": "CN(C)CCCn1cc(C2=C(c3c[nH]c4ccccc34)C(=O)NC2=O)c2ccccc21", "note": "[GFX, GF109203X]", "values": [{"measurement": "HHcy/HG-induced eNOS-pThr495", "setting": "[6]", "result": "completely rescued"}]}
